In ChEMBL document CHEMBL1126235, “Benzothiadiazine dioxides: A new class of potent angiotensin-II (AT1) receptor antagonists” (Bioorg Med Chem Lett, 1992):

Assays:
Oryctolagus cuniculus = organism: Oryctolagus cuniculus; experiment: Compound was tested for functional antagonism of angiotensin-II induced contraction in isolated rabbit aorta
[1] = target: T1, Angiotensin II receptor (AT-1) type-1 (Rattus norvegicus, UniProt P29089+P25095); experiment: Binding against Angiotensin II receptor in a radioligand binding assay using [125I]-Sar1-Ile8 angiotensin-II as radioligand in rat adrenal cortical membranes; assay type: cell membranes
T1 sequence (P29089 whole entry): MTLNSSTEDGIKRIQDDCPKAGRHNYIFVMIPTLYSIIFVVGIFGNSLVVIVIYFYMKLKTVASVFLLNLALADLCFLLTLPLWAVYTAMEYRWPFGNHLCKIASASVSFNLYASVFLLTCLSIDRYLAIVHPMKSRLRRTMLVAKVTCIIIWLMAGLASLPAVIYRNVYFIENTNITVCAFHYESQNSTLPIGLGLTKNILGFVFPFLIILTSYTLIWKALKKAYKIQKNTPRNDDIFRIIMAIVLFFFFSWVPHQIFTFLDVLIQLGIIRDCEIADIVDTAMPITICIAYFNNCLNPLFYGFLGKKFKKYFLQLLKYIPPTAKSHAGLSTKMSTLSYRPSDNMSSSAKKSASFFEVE
T1 sequence (P25095 whole entry): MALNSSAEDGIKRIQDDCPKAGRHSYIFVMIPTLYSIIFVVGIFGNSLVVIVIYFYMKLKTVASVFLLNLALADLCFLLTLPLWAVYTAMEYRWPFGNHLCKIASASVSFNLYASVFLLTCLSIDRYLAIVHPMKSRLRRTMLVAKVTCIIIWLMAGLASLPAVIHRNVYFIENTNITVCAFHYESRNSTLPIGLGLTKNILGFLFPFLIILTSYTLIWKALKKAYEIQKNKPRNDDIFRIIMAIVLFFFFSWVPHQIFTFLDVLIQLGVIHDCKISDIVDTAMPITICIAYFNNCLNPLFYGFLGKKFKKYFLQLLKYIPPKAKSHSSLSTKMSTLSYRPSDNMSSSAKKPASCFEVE

| Compound | Ki [1] | Kb (Oryctolagus cuniculus) |
| --- | --- | --- |
| CCSC1=NS(=O)(=O)c2cc(C)cnc2N1Cc1ccc(-c2ccccc2-c2nn[nH]n2)cc1 | 0.8 nM | 0.6 nM |
| CCCCC1=NS(=O)(=O)c2ccccc2N1Cc1ccc(-c2ccccc2C(=O)O)cc1 | 550 nM | 130 nM |
| CCCCC1=Nc2ccccc2S(=O)(=O)N1Cc1ccc(-c2ccccc2C(=O)O)cc1 | 230 nM | 160 nM |
| CCCSC1=NS(=O)(=O)c2ccccc2N1Cc1ccc(-c2ccccc2C(=O)O)cc1 | 180 nM | 20 nM |
| CCCSC1=NS(=O)(=O)c2ccccc2N1Cc1ccc(-c2ccccc2-c2nn[nH]n2)cc1 | 4.8 nM | 93 nM |
| CCCCc1nc(Cl)c(CO)n1Cc1ccc(-c2ccccc2-c2nnn[nH]2)cc1 [LOSARTAN] | – | 2.6 nM |

Now from value to molecule, other results behind:

| Ki [1] | Compound | Kb (Oryctolagus cuniculus) |
| --- | --- | --- |
| 0.6 nM | CCCSC1=NS(=O)(=O)c2cc(C)cnc2N1Cc1ccc(-c2ccccc2-c2nn[nH]n2)cc1 | 11 nM |
| 57 nM | CCCSC1=Nc2ccccc2S(=O)(=O)N1Cc1ccc(-c2ccccc2-c2nn[nH]n2)cc1 | 640 nM |
| 8.5 nM | CCCSC1=NS(=O)(=O)c2ccc(C(=O)O)cc2N1Cc1ccc(-c2ccccc2-c2nn[nH]n2)cc1 | 0.08 nM |
| 4900 nM | CCCSC1=Nc2ccccc2S(=O)(=O)N1Cc1ccc(-c2ccccc2C(=O)O)cc1 | 1200 nM |
